# Source: PMC3720905, “A Conserved Aspartic Acid Is Important for Agonist (VUAA1) and Odorant/Tuning Receptor-Dependent Activation of the Insect Odorant Co-Receptor (Orco)” (PLoS ONE, 2013)
# Assays:
# [1] = biological target: T1, DmelOrco (N-myc DmelOrco) (Drosophila melanogaster, UniProt Q9VNB5); assay: Ca2+ influx (Fluo-4 fluorescence); type: cell-based
# T1 construct: gene Orco; homomeric channel; ~50 kDa band
# T1 sequence (Q9VNB5 1-486): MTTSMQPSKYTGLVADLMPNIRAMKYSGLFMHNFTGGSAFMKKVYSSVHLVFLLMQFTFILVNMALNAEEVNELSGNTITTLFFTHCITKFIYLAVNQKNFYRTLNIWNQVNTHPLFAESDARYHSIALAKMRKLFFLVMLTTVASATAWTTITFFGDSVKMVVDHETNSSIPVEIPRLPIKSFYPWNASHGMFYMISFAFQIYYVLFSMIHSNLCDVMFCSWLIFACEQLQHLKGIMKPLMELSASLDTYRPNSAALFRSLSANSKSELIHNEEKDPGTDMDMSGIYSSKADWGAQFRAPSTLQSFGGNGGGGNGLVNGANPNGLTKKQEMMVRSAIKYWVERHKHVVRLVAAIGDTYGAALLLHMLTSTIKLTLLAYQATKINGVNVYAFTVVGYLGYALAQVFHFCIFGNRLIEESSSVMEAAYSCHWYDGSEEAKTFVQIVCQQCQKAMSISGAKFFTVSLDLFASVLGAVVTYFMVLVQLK
# [2] = biological target: T2, DmelOrco (N-myc DmelOrco) (Drosophila melanogaster, UniProt Q9VNB5, D357N); assay: Ca2+ influx (Fluo-4 fluorescence); type: cell-based
# T2 construct: gene Orco; homomeric channel; ~50 kDa band
# T2 sequence (Q9VNB5 1-486 D357N): T1 sequence (Q9VNB5 1-486)
# [3] = biological target: T3, DmelOrco (N-myc DmelOrco) (Drosophila melanogaster, UniProt Q9VNB5, D466N); assay: Ca2+ influx (Fluo-4 fluorescence); type: cell-based
# T3 construct: gene Orco; homomeric channel; ~50 kDa band
# T3 sequence (Q9VNB5 1-486 D466N): T1 sequence (Q9VNB5 1-486)
# [4] = biological target: T4, DmelOrco (N-myc DmelOrco) (Drosophila melanogaster, UniProt Q9VNB5, D466E); assay: Ca2+ influx (Fluo-4 fluorescence); type: cell-based
# T4 construct: gene Orco; homomeric channel; ~50 kDa band
# T4 sequence (Q9VNB5 1-486 D466E): T1 sequence (Q9VNB5 1-486)
# [5] = biological target: T5, DmelOrco/DmelOR22a complex (Drosophila melanogaster, UniProt P81909); assay: Ca2+ influx (Fluo-4 AM fluorescence); type: cell-based; conditions: heteromeric channel, odorant agonist; data not shown
# T5 construct: gene Or22a; heteromeric channel; Or22a in pCI transiently transfected into Flp-In 293 T-REX cells stably expressing N-myc DmelOrco; stoichiometry unknown; with Odorant receptor coreceptor
# T5 sequence (P81909 1-397): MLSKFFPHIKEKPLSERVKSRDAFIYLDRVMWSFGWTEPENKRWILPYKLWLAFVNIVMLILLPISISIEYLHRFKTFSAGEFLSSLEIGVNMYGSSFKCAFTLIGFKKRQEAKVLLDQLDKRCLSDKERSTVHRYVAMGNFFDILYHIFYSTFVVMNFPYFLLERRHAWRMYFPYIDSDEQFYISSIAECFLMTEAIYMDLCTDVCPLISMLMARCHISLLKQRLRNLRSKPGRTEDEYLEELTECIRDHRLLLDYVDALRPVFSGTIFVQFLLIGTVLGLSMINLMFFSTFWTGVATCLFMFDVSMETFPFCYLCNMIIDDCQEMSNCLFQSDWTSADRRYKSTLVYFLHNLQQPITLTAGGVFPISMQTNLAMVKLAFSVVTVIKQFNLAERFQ
# T5 sequence (Q9VNB5 1-486 partner): T1 sequence (Q9VNB5 1-486)
# DmelOrco/AgOR65 complex [6] = tested on: T6, DmelOrco/AgOR65 complex; assay: Ca2+ influx (Fluo-4 AM fluorescence); type: cell-based, Anopheles gambiae; conditions: log10 of molar EC50 (unit not given); heteromeric channel, odorant agonist
# T6 construct: gene Or65; mixed-species heteromeric channel; AgOR65 in pCI transfected into Flp-In 293 T-REX cells stably expressing N-myc DmelOrco; with Odorant receptor coreceptor (Drosophila melanogaster)
# DmelOrco/AgOR65 complex [7] = tested on: T6, DmelOrco/AgOR65 complex; assay: Ca2+ influx (Fluo-4 AM fluorescence); type: cell-based, Anopheles gambiae; conditions: log10 of molar EC50 (unit not given); heteromeric channel, odorant agonist; remark: listed apart in the source
# DmelOrco/AgOR65 complex [8] = tested on: T6, DmelOrco/AgOR65 complex; assay: Ca2+ influx (Fluo-4 AM fluorescence); type: cell-based, Anopheles gambiae; conditions: log10 of molar EC50 (unit not given); heteromeric channel, odorant agonist; remark: listed apart in the source
# [9] = biological target: T5, DmelOrco/DmelOR22a complex; assay: Ca2+ influx (Fluo-4 AM fluorescence); type: cell-based
structure (smiles),measurement,setting,value
"CCc1ccc(NC(=O)CSc2nnc(-c3cccnc3)n2CC)cc1 [VUAA1, N-(4-ethylphenyl)-2-((4-ethyl-5-(3-pyridinyl)-4H-1,2,4-triazol-3-yl)thio)acetamide]",EC50,[1],46.8 µM
same,EC50,[2],38 µM
same,EC50,[3],85.1 µM
same,EC50,[4],21.4 µM
CCCCCC(=O)OCC [ethyl hexanoate],Ca2+ influx (Fluo-4 AM fluorescence),[5],Essentially identical responses were observed to ethyl hexanoate
C=CCc1ccc(O)c(OC)c1 [eugenol],LogEC50,DmelOrco/AgOR65 complex [6],-6.54±0.05
same,LogEC50,DmelOrco/AgOR65 complex [7],-6.34±0.04
same,LogEC50,DmelOrco/AgOR65 complex [8],-6.75±0.03
CCCCCC(=O)OC [methyl hexanoate],EC50,[9],0.417 µM
